Measured values published in US9376442B2, “Methylpyrrolopyrimidinecarboxamides” (Takeda GmbH, priority 2009, dated 2016).

Columns and labels:
[1] = target: T1, PDE5A1 (Homo sapiens, UniProt O76074); experiment: Inhibition of type 5 phosphodiesterase (PDE5) activity, modified SPA test with human platelet lysate; assay type: biochemical; conditions: 0.5 μM cGMP, read-out: PDE5A1 inhibitory values [measured as −log IC50 (mol/l)] (converted)
T1 construct: from tissue; host or cells: human platelets from fresh donor blood (10,000 x g supernatant of sonicated lysate)
Summary of the method: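 Scintillation proximity assay with [3H]cGMP tracer at 0.5 μM total cGMP, stopped after 15 min with beads containing IBMX. PDE3 and PDE2 activities suppressed with motapizone (1 μM) and a PDE2 inhibitor (10 nM). Human platelet supernatant served as the enzyme, with compound preincubated 5 min at 37° C; IC50 values from concentration-effect curves.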

[2] = target: T2, PDE4B1 (Homo sapiens, UniProt Q07343); experiment: Inhibition of type 4 phosphodiesterase (PDE4) activity, modified SPA test with recombinant PDE4B1 expressed in SF21 insect cells; assay type: biochemical; conditions: recombinant PDE4B1, 0.5 μM cAMP, read-out: PDE4B1 inhibitory values [measured as −log IC50 (mol/l)] (converted)
T2 construct: made in house; host or cells: SF21 insect cells (baculovirus; pCRBac vector), 1000 x g supernatant of homogenate
Summary of the method: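 Modified [3H]cAMP SPA using 1000×g supernatant of SF21 cells expressing recombinant human PDE4B1, in 20 mM Tris pH 7.4, 0.1 mg/ml BSA, 5 mM Mg2+, 0.5 μM cAMP. After 5 min preincubation at 37 °C, 15 min reaction, stopped with SPA beads plus IBMX; IC50 by non-linear regression.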

T2 sequence (Q07343 whole entry): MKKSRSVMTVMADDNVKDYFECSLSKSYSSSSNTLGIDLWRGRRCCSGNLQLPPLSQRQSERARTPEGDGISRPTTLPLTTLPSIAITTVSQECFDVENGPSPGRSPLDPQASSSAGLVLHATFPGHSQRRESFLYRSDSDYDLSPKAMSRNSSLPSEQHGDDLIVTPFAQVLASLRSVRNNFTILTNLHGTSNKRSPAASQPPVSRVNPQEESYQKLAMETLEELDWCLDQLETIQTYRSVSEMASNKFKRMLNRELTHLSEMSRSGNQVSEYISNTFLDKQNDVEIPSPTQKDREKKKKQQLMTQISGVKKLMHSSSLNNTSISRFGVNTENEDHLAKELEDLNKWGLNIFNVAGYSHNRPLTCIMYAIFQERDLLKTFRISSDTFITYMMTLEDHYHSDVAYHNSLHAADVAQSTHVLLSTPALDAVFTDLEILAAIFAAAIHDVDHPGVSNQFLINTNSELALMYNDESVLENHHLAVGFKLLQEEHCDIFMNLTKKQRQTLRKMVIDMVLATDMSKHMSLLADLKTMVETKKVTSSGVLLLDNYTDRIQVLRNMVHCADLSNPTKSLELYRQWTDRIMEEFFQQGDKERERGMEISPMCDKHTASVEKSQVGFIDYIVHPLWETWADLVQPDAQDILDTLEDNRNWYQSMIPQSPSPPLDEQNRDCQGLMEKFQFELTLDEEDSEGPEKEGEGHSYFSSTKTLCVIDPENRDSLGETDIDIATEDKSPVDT

IC50 [1]	IC50 [2]	SMILES
< 1 nM	< 100 nM	Cc1[nH]c2c(-c3cc(C(F)(F)F)ccc3OCC3CC3)ncnc2c1C(=O)N[C@H]1CC[C@H](NC(=O)[C@H](C)O)CC1 [Example F60, 4-[2-(Cyclopropylmethoxy)-5-(trifluoromethyl)phenyl]-N-(trans-4-{[(2S)-2-hydroxypropanoyl]amino}cyclohexyl)-6-methyl-5H-pyrrolo[3,2-d]pyrimidine-7-carboxamide]
< 1 nM	< 100 nM	Cc1ccc(OCC2CC2)c(-c2ncnc3c(C(=O)N[C@H]4CC[C@@H](NC(=O)CO)CC4)c(C)[nH]c23)c1 [Example F55, 4-[2-(Cyclopropylmethoxy)-5-methylphenyl]-N-{cis-4-[(hydroxyacetyl)amino]cyclohexyl}-6-methyl-5H-pyrrolo[3,2-d]pyrimidine-7-carboxamide]
< 1 nM	< 100 nM	COCC(=O)N1CCC(NC(=O)c2c(C)[nH]c3c(-c4cc(C)ccc4OCC4CC4)ncnc23)CC1 [Example E83, 4-[2-(cyclopropylmethoxy)-5-methylphenyl]-N-[1-(methoxyacetyl)piperidin-4-yl]-6-methyl-5H-pyrrolo[3,2-d]pyrimidine-7-carboxamide]
1 to 10 nM	100 to 1000 nM	CCc1ccc(OCC2CC2)c(-c2ncnc3c(C(=O)N[C@@H]4CN(C(=O)CO)C[C@H]4O)c(C)[nH]c23)c1 (relative stereo) [Example F97, 4-[2-(Cyclopropylmethoxy)-5-ethylphenyl]-N-[(3R*,4R*)-4-hydroxy-1-(hydroxyacetyl)pyrrolidin-3-yl]-6-methyl-5H-pyrrolo[3,2-d]pyrimidine-7-carboxamide]
< 1 nM	< 100 nM	CC(=O)N[C@H]1CC[C@@H](NC(=O)c2c(C)[nH]c3c(-c4cc(C)ccc4OCC4CC4)ncnc23)CC1 [Example E87, N-[cis-4-(acetylamino)cyclohexyl]-4-[2-(cyclopropylmethoxy)-5-methylphenyl]-6-methyl-5H-pyrrolo[3,2-d]pyrimidine-7-carboxamide]
< 1 nM	100 to 1000 nM	Cc1[nH]c2c(-c3cc(C(C)C)ccc3OCC3CC3)ncnc2c1C(=O)NC1CCN(C(=O)[C@H](C)O)CC1 [Example F99, 4-[2-(Cyclopropylmethoxy)-5-(propan-2-yl)phenyl]-N-{1-[(2S)-2-hydroxypropanoyl]piperidin-4-yl}-6-methyl-5H-pyrrolo[3,2-d]pyrimidine-7-carboxamide]
< 1 nM	100 to 1000 nM	COc1ccc(OCC2CC2)c(-c2ncnc3c(C(=O)N[C@H]4CC[C@@H](NC(=O)CO)CC4)c(C)[nH]c23)c1 [Example F45, 4-[2-(Cyclopropylmethoxy)-5-methoxyphenyl]-N-[cis-4-(glycoloylamino)cyclohexyl]-6-methyl-5H-pyrrolo[3,2-d]pyrimidine-7-carboxamide]
< 1 nM	< 100 nM	Cc1[nH]c2c(-c3cc(C(F)(F)F)ccc3OCC3CC3)ncnc2c1C(=O)N[C@H]1CC[C@H](NC(=O)CO)CC1 [Example F59, 4-[2-(Cyclopropylmethoxy)-5-(trifluoromethyl)phenyl]-N-{trans-4-[(hydroxyacetyl)amino]cyclohexyl}-6-methyl-5H-pyrrolo[3,2-d]pyrimidine-7-carboxamide]
< 1 nM	100 to 1000 nM	CCC(=O)N[C@H]1CC[C@@H](NC(=O)c2c(C)[nH]c3c(-c4cc(OC)ccc4OCC4CC4)ncnc23)CC1 [Example E73, 4-[2-(Cyclopropylmethoxy)-5-methoxyphenyl]-6-methyl-N-[cis-4-(propionylamino)cyclohexyl]-5H-pyrrolo[3,2-d]pyrimidine-7-carboxamide]
< 1 nM	< 100 nM	COCC(=O)N[C@H]1CC[C@H](NC(=O)c2c(C)[nH]c3c(-c4cc(F)ccc4OCC4CC4)ncnc23)CC1 [Example E43, 4-[2-(Cyclopropylmethoxy)-5-fluorophenyl]-N-{trans-4-[(methoxyacetyl)amino]cyclohexyl}-6-methyl-5H-pyrrolo[3,2-d]pyrimidine-7-carboxamide]
< 1 nM	100 to 1000 nM	COc1ccc(OCC2CC2)c(-c2ncnc3c(C(=O)NC4CCN(C(C)=O)CC4)c(C)[nH]c23)c1 [Example E66, N-(1-acetylpiperidin-4-yl)-4-[2-(cyclopropylmethoxy)-5-methoxyphenyl]-6-methyl-5H-pyrrolo[3,2-d]pyrimidine-7-carboxamide]

The remaining lines, values behind:

SMILES	IC50 [1]	IC50 [2]
CCC(=O)N1CCC(NC(=O)c2c(C)[nH]c3c(-c4cc(F)ccc4OCC4CC4)ncnc23)CC1 [Example E38, 4-[2-(cyclopropylmethoxy)-5-fluorophenyl]-6-methyl-N-(1-propionylpiperidin-4-yl)-5H-pyrrolo[3,2-d]pyrimidine-7-carboxamide]	< 1 nM	100 to 1000 nM
Cc1[nH]c2c(-c3cc(C(C)C)ccc3OCC3CC3)ncnc2c1C(=O)N[C@H]1CC[C@@H](NC(=O)[C@H](C)O)CC1 [Example F101, 4-[2-(Cyclopropylmethoxy)-5-(propan-2-yl)phenyl]-N-(cis-4-{[(2S)-2-hydroxypropanoyl]amino}cyclohexyl)-6-methyl-5H-pyrrolo[3,2-d]pyrimidine-7-carboxamide]	< 1 nM	100 to 1000 nM
CC(=O)N[C@H]1CC[C@H](NC(=O)c2c(C)[nH]c3c(-c4cc(C(F)F)ccc4OCC4CC4)ncnc23)[C@H](F)C1 (relative stereo) [Example P169, N-[(1S*,2R*,4S*)-4-(Acetylamino)-2-fluorocyclohexyl]-4-[2-(cyclopropylmethoxy)-5-(difluoromethyl)phenyl]-6-methyl-5H-pyrrolo[3,2-d]pyrimidine-7-carboxamide]	< 1 nM	< 100 nM
CC(=O)N[C@H]1CC[C@H](NC(=O)c2c(C)[nH]c3c(-c4cc(C(C)C)ccc4OCC4CC4)ncnc23)CC1 [Example E159, N-[trans-4-(Acetylamino)cyclohexyl]-4-[2-(cyclopropylmethoxy)-5-(propan-2-yl)phenyl]-6-methyl-5H-pyrrolo[3,2-d]pyrimidine-7-carboxamide]	< 1 nM	100 to 1000 nM
Cc1ccc(OCC2CC2)c(-c2ncnc3c(C(=O)NC4CCN(C(=O)[C@H](C)O)CC4)c(C)[nH]c23)c1 [Example F52, 4-[2-(Cyclopropylmethoxy)-5-methylphenyl]-N-{1-[(2S)-2-hydroxypropanoyl]piperidin-4-yl}-6-methyl-5H-pyrrolo[3,2-d]pyrimidine-7-carboxamide]	< 1 nM	< 100 nM
CC(=O)N1CCC(NC(=O)c2c(C)[nH]c3c(-c4cc(C(F)(F)F)ccc4OCC4CC4)ncnc23)CC1 [Example E90, N-(1-Acetylpiperidin-4-yl)-4-[2-(cyclopropylmethoxy)-5-(trifluoromethyl)phenyl]-6-methyl-5H-pyrrolo[3,2-d]pyrimidine-7-carboxamide]	< 1 nM	< 100 nM
COCC(=O)N[C@@H]1CC[C@@H](NC(=O)c2c(C)[nH]c3c(-c4cc(C(F)F)ccc4OCC4CC4)ncnc23)[C@H](F)C1 (relative stereo) [Example P161, 4-[2-(Cyclopropylmethoxy)-5-(difluoromethyl)phenyl]-N-{(1R*,2R*,4R*)-2-fluoro-4-[(methoxyacetyl)amino]cyclohexyl}-6-methyl-5H-pyrrolo[3,2-d]pyrimidine-7-carboxamide]	< 1 nM	< 100 nM
CCC(=O)N[C@H]1CC[C@H](NC(=O)c2c(C)[nH]c3c(-c4cc(C(F)F)ccc4OCC4CC4)ncnc23)[C@H](F)C1 (relative stereo) [Example P170, 4-[2-(Cyclopropylmethoxy)-5-(difluoromethyl)phenyl]-N-[(1S*,2R*,4S*)-2-fluoro-4-(propanoylamino)cyclohexyl]-6-methyl-5H-pyrrolo[3,2-d]pyrimidine-7-carboxamide]	< 1 nM	< 100 nM
CCC(=O)N[C@H]1CC[C@@H](NC(=O)c2c(C)[nH]c3c(-c4cc(C)ccc4OCC4CC4)ncnc23)CC1 [Example E88, 4-[2-(Cyclopropylmethoxy)-5-methylphenyl]-6-methyl-N-[cis-4-(propanoylamino)cyclohexyl]-5H-pyrrolo[3,2-d]pyrimidine-7-carboxamide]	< 1 nM	< 100 nM
Cc1ccc(OCC2CC2)c(-c2nc(C)nc3c(C(=O)NC4CCN(C(=O)CO)CC4)c(C)[nH]c23)c1 [Example F106, 4-[2-(Cyclopropylmethoxy)-5-methylphenyl]-N-[1-(hydroxyacetyl)piperidin-4-yl]-2,6-dimethyl-5H-pyrrolo[3,2-d]pyrimidine-7-carboxamide]	< 1 nM	100 to 1000 nM
COc1ccc(OCC2CC2)c(-c2ncnc3c(C(=O)N[C@H]4CC[C@@H](NC(=O)[C@H](C)O)CC4)c(C)[nH]c23)c1 [Example F46, 4-[2-(cyclopropylmethoxy)-5-methoxyphenyl]-N-(cis-4-{[(2S)-2-hydroxypropanoyl]amino}cyclohexyl)-6-methyl-5H-pyrrolo[3,2-d]pyrimidine-7-carboxamide]	< 1 nM	100 to 1000 nM
COCC(=O)N[C@H]1CC[C@H](NC(=O)c2c(C)[nH]c3c(-c4cc(C(F)F)ccc4OCC4CC4)ncnc23)[C@H](F)C1 (relative stereo) [Example P171, 4-[2-(Cyclopropylmethoxy)-5-(difluoromethyl)phenyl]-N-{(1S*,2R*,4S*)-2-fluoro-4-[(methoxyacetyl)amino]cyclohexyl}-6-methyl-5H-pyrrolo[3,2-d]pyrimidine-7-carboxamide]	< 1 nM	< 100 nM
